Where two headings read alike, the source gives them in different places.
Legend:
[1] = biological target: T1, Chymotrypsin (Bos taurus, UniProt P00766); test: Chymotrypsin inhibition, fluorogenic substrate assay (Suc-Ala-Ala-Pro-Phe-AMC); assay type: biochemical; conditions: for Mean (RFU/s): Chymotrypsin; for fold increase in potency towards chymotrypsin: molassamide B (6) compared to molassamide (5)
T1 construct: purchased Sigma-Aldrich

[2] = biological target: T2, Elastase (Sus scrofa, UniProt P00772); test: Elastase inhibition, fluorogenic substrate assay (MeOSuc-Ala-Ala-Pro-Val-AMC); assay type: biochemical, Sus domesticus; conditions: for IC50 / Mean (RFU/s): 40 min pre-incubation; for IC50: mean, n = 3; for Mean (RFU/s): Elastase
T2 construct: purchased Sigma-Aldrich

[3] = biological target: T3, Proteinase K (Parengyodontium album, UniProt P06873); test: Proteinase K inhibition, fluorogenic substrate assay (Suc-Ala-Ala-Pro-Phe-AMC); assay type: biochemical, Tritirachium album; conditions: for IC50 / Mean (RFU/s): 40 min pre-incubation; for IC50: mean, n = 3; for Mean (RFU/s): Proteinase K
T3 construct: purchased Roche

[4] = 40 min pre-incubation, mean, n = 3, read-out: IC50 Chymotrypsin
[5] = inhibitor concentration 0.0508053 nM, 40 min pre-incubation
[6] = inhibitor concentration 0.152416 nM, 40 min pre-incubation
[7] = inhibitor concentration 0.457247 nM, 40 min pre-incubation
[8] = inhibitor concentration 1.37174 nM, 40 min pre-incubation
[9] = inhibitor concentration 4.11523 nM, 40 min pre-incubation
[10] = inhibitor concentration 12.3457 nM, 40 min pre-incubation
[11] = inhibitor concentration 37.037 nM, 40 min pre-incubation
[12] = inhibitor concentration 111.111 nM, 40 min pre-incubation
[13] = inhibitor concentration 333.333 nM, 40 min pre-incubation
[14] = inhibitor concentration 1000 nM, 40 min pre-incubation
[15] = inhibitor concentration 3000 nM, 40 min pre-incubation
[16] = Supplementary Table 5, compounds of this study, read-out: Chymotrypsin IC50
[17] = inhibitor concentration 0.0508053 nM
[18] = inhibitor concentration 0.152416 nM
[19] = inhibitor concentration 0.457247 nM
[20] = inhibitor concentration 1.37174 nM
[21] = inhibitor concentration 4.11523 nM
[22] = inhibitor concentration 12.3457 nM
[23] = inhibitor concentration 37.037 nM
[24] = inhibitor concentration 111.111 nM
[25] = inhibitor concentration 333.333 nM
[26] = inhibitor concentration 1000 nM
[27] = inhibitor concentration 3000 nM
[28] = molassamide B (6) compared to molassamide (5)

T2 sequence (P00772 27-266): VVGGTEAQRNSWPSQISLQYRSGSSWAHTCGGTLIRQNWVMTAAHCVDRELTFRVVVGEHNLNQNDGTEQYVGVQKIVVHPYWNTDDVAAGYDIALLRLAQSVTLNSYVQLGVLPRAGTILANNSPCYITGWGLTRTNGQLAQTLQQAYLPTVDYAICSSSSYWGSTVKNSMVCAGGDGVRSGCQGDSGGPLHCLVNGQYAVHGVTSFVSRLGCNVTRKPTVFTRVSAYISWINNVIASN
T3 sequence (P06873 106-384): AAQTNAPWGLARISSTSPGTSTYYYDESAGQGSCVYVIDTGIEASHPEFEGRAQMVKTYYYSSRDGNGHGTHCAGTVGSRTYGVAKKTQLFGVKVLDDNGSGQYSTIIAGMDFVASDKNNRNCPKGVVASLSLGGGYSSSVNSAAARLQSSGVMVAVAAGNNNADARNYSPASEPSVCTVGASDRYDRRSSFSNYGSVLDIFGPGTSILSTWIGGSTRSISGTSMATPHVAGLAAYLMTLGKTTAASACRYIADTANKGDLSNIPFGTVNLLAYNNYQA

C/C=C1\NC(=O)[C@@H](NC(=O)[C@@H](NC(=O)[C@H](C)NC(=O)CCC)[C@@H](C)O)[C@@H](C)OC(=O)[C@H](C(C)C)NC(=O)[C@H](Cc2ccc(O)c(Br)c2)N(C)C(=O)[C@H](Cc2ccccc2)N2C(=O)[C@H](CC[C@H]2O)NC1=O [Molassamide B, molassamide B]
IC50 [1, 4]: 24.6 nM
Mean (RFU/s) [1, 5]: 5.208 RFU/s
Mean (RFU/s) [1, 6]: 5.061 RFU/s
Mean (RFU/s) [1, 7]: 5.116 RFU/s
Mean (RFU/s) [1, 8]: 5.104 RFU/s
Mean (RFU/s) [1, 9]: 4.681 RFU/s
Mean (RFU/s) [1, 10]: 3.888 RFU/s
Mean (RFU/s) [1, 11]: 1.754 RFU/s
Mean (RFU/s) [1, 12]: 0.844 RFU/s
Mean (RFU/s) [1, 13]: 0.3123 RFU/s
Mean (RFU/s) [1, 14]: 0.1157 RFU/s
Mean (RFU/s) [1, 15]: 0 RFU/s
IC50 [1, 16]: 24.7 nM
fold increase in potency towards chymotrypsin [1]: thirtyfive
fold increase in potency towards chymotrypsin ([1]; listed as 6): 35 fold
IC50 [2]: 11.7 nM
Mean (RFU/s) [2, 17]: 0.846 RFU/s
Mean (RFU/s) [2, 18]: 0.8437 RFU/s
Mean (RFU/s) [2, 19]: 0.8327 RFU/s
Mean (RFU/s) [2, 20]: 0.7837 RFU/s
Mean (RFU/s) [2, 21]: 0.677 RFU/s
Mean (RFU/s) [2, 22]: 0.418 RFU/s
Mean (RFU/s) [2, 23]: 0.1113 RFU/s
Mean (RFU/s) [2, 24]: 0.024 RFU/s
Mean (RFU/s) [2, 25]: 0 RFU/s
Mean (RFU/s) [2, 26]: 0 RFU/s
Mean (RFU/s) [2, 27]: 0 RFU/s
fold increase in potency towards elastase [2, 28]: three
IC50 [3]: 5.42 nM
Mean (RFU/s) [3, 17]: 6.3 RFU/s
Mean (RFU/s) [3, 18]: 6.284 RFU/s
Mean (RFU/s) [3, 19]: 6.22 RFU/s
Mean (RFU/s) [3, 20]: 5.564 RFU/s
Mean (RFU/s) [3, 21]: 3.825 RFU/s
Mean (RFU/s) [3, 22]: 1.43 RFU/s
Mean (RFU/s) [3, 23]: 0.3433 RFU/s
Mean (RFU/s) [3, 24]: 0.1 RFU/s
Mean (RFU/s) [3, 25]: 0.03367 RFU/s
Mean (RFU/s) [3, 26]: 0 RFU/s
Mean (RFU/s) [3, 27]: 0 RFU/s
fold increase in potency towards proteinase K [3, 28]: four

CC=C1NC(=O)[C@@H](NC(=O)[C@@H](NC(=O)[C@@H]2CCCN2C(=O)CCC)[C@@H](C)O)[C@@H](C)OC(=O)[C@H](C(C)C)NC(=O)[C@H](Cc2ccc(O)cc2)N(C)C(=O)[C@H](Cc2ccccc2)N2C(=O)[C@H](CC[C@H]2O)NC1=O [Rivulariapeptolide 988, rivulariapeptolide 988]
IC50 [1, 4]: 95.5 nM
Mean (RFU/s) [1, 5]: 4.956 RFU/s
Mean (RFU/s) [1, 6]: 4.945 RFU/s
Mean (RFU/s) [1, 7]: 5.008 RFU/s
Mean (RFU/s) [1, 8]: 5.099 RFU/s
Mean (RFU/s) [1, 9]: 4.694 RFU/s
Mean (RFU/s) [1, 10]: 4.587 RFU/s
Mean (RFU/s) [1, 11]: 3.41 RFU/s
Mean (RFU/s) [1, 12]: 2.381 RFU/s
Mean (RFU/s) [1, 13]: 1.135 RFU/s
Mean (RFU/s) [1, 14]: 0.4203 RFU/s
Mean (RFU/s) [1, 15]: 0.1363 RFU/s
IC50 [1, 16]: 95.5 nM
IC50 [2]: 15.3 nM
Mean (RFU/s) [2, 17]: 0.804 RFU/s
Mean (RFU/s) [2, 18]: 0.8127 RFU/s
Mean (RFU/s) [2, 19]: 0.808 RFU/s
Mean (RFU/s) [2, 20]: 0.7693 RFU/s
Mean (RFU/s) [2, 21]: 0.661 RFU/s
Mean (RFU/s) [2, 22]: 0.463 RFU/s
Mean (RFU/s) [2, 23]: 0.2057 RFU/s
Mean (RFU/s) [2, 24]: 0.065 RFU/s
Mean (RFU/s) [2, 25]: 0.018 RFU/s
Mean (RFU/s) [2, 26]: 0 RFU/s
Mean (RFU/s) [2, 27]: 0 RFU/s
IC50 [3]: 85.5 nM
Mean (RFU/s) [3, 17]: 6.083 RFU/s
Mean (RFU/s) [3, 18]: 6.104 RFU/s
Mean (RFU/s) [3, 19]: 6.172 RFU/s
Mean (RFU/s) [3, 20]: 5.959 RFU/s
Mean (RFU/s) [3, 21]: 5.86 RFU/s
Mean (RFU/s) [3, 22]: 5.64 RFU/s
Mean (RFU/s) [3, 23]: 4.799 RFU/s
Mean (RFU/s) [3, 24]: 2.395 RFU/s
Mean (RFU/s) [3, 25]: 0.4403 RFU/s
Mean (RFU/s) [3, 26]: 0.07367 RFU/s
Mean (RFU/s) [3, 27]: 0.022 RFU/s

CC=C1NC(=O)[C@@H](NC(=O)[C@@H](NC(=O)[C@@H]2CCCN2C(=O)CCC)[C@@H](C)OC(=O)C2CCCN2C(=O)CCC)[C@@H](C)OC(=O)[C@H](C(C)C)NC(=O)[C@H](Cc2ccc(O)cc2)N(C)C(=O)[C@H](CC(C)C)N2C(=O)[C@H](CC[C@H]2O)NC1=O (stereo partly shown) [Rivulariapeptolide 1121, rivulariapeptolide 1121]
IC50 [1, 4]: 35.5 nM
Mean (RFU/s) [1, 5]: 4.522 RFU/s
Mean (RFU/s) [1, 6]: 4.745 RFU/s
Mean (RFU/s) [1, 7]: 4.969 RFU/s
Mean (RFU/s) [1, 8]: 4.65 RFU/s
Mean (RFU/s) [1, 9]: 4.6 RFU/s
Mean (RFU/s) [1, 10]: 4.156 RFU/s
Mean (RFU/s) [1, 11]: 1.852 RFU/s
Mean (RFU/s) [1, 12]: 1.527 RFU/s
Mean (RFU/s) [1, 13]: 0.623 RFU/s
Mean (RFU/s) [1, 14]: 0.1967 RFU/s
Mean (RFU/s) [1, 15]: 0 RFU/s
IC50 [1, 16]: 35.5 nM
IC50 [2]: 13.2 nM
Mean (RFU/s) [2, 17]: 0.8433 RFU/s
Mean (RFU/s) [2, 18]: 0.7923 RFU/s
Mean (RFU/s) [2, 19]: 0.7877 RFU/s
Mean (RFU/s) [2, 20]: 0.7943 RFU/s
Mean (RFU/s) [2, 21]: 0.7343 RFU/s
Mean (RFU/s) [2, 22]: 0.4323 RFU/s
Mean (RFU/s) [2, 23]: 0.094 RFU/s
Mean (RFU/s) [2, 24]: 0.02167 RFU/s
Mean (RFU/s) [2, 25]: 0 RFU/s
Mean (RFU/s) [2, 26]: 0 RFU/s
Mean (RFU/s) [2, 27]: 0 RFU/s
IC50 [3]: 48 nM
Mean (RFU/s) [3, 17]: 6.561 RFU/s
Mean (RFU/s) [3, 18]: 6.281 RFU/s
Mean (RFU/s) [3, 19]: 6.268 RFU/s
Mean (RFU/s) [3, 20]: 6.292 RFU/s
Mean (RFU/s) [3, 21]: 6.214 RFU/s
Mean (RFU/s) [3, 22]: 5.471 RFU/s
Mean (RFU/s) [3, 23]: 4.069 RFU/s
Mean (RFU/s) [3, 24]: 0.93 RFU/s
Mean (RFU/s) [3, 25]: 0.1023 RFU/s
Mean (RFU/s) [3, 26]: 0 RFU/s
Mean (RFU/s) [3, 27]: 0 RFU/s

Source: article PMC9358669, “Native metabolomics identifies the rivulariapeptolide family of protease inhibitors” (Nature Communications, 2022)
